For series [1], the system named is mftR. It is filed as binding, Burkholderia thailandensis.
The subject of series [2] is MftR W11F. The format is binding, Burkholderia thailandensis.
In series [3] the target is mftR. It is filed as binding, Burkholderia thailandensis. As to conditions: read-out: K.
Series [4] has as its system MftR-mftpO complex. It is filed as biochemical, Burkholderia thailandensis.
Series [5] deals with MftR-mftrO complex. The format is biochemical, Burkholderia thailandensis.
In series [6] the test system is MftR D56S. It is filed as binding, Burkholderia thailandensis.
The subject of series [7] is mftR. The settings on record: cited from earlier work.
The target in series [8] is T1, MftR WT (Burkholderia thailandensis E264, UniProt Q2SVY7 1-164).
T1 sequence: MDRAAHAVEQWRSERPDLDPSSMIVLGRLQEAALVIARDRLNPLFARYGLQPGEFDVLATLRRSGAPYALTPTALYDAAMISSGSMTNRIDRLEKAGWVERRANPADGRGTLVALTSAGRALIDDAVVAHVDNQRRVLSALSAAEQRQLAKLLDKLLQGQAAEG
Kind of series: EMSA.

We go through five molecules from paper PMC4100783 (Biochemistry, 2014).

Values joined by “and” are separate entries in the source; they are usually repeats but may differ in a detail not shown here. Equal values may be shown once.

For orientation: IC50 means the concentration at which inhibition is half-maximal. A high value points to lower potency. As for `O=c1[nH]c(=O)c2[nH]c(=O)[nH]c2[nH]1` [urate], in series [1], the “Tm of MftR” value was found to be 61.3 ± 1.0 °C, the “Tm of MftR D1” value was 49.2 ± 0.2 °C and the “Tm of MftR D2” value was 58.0 ± 0.1 °C. Besides, in series [2], the “Tm of W11F” value is 27.0 ± 0.1 °C and 28.8 ± 0.7 °C; the “increase of Tm compared to protein alone” value was ~4 °C. Also, the Kd in series [3] is 6.1 ± 2.1 µM. This molecule came in with an IC50 in series [4] of 2200 µM. Besides, it took 3700 ± 300 µM to reach half-maximal inhibition in series [5] (IC50). For the same molecule, the “Tm of D56S” value in series [6] is 52.3 ± 0.3 °C and 51.3 ± 0.1 °C.
Consider `O=c1[nH]cnc2nc[nH]c12` [hypoxanthine], for which the “effect on DNA binding by MftR” value in series [7] is “inhibit DNA binding, albeit less efficiently than urate”.
With `O=c1[nH]c(=O)c2nc[nH]c2[nH]1` [xanthine], in series [7], the “effect on DNA binding by MftR” value was “inhibit DNA binding, albeit less efficiently than urate”.

B1: mftpO (dsDNA)
DNA 1: TGTCGAATCTATCTTGATGTCGAGACAATTATACGC
DNA 2: GCGTATAATTGTCTCGACATCAAGATAGATTCGACA
Take B1: in series [8], the Kd was determined as 0.0006 ± 0.0001 µM.

B2: mftrO (dsDNA)
DNA 1: CGTCCAAGTTATCTTGACGTAGAGACATGTCGAATC
DNA 2: GATTCGACATGTCTCTACGTCAAGATAACTTGGACG
B2 yielded a Kd in series [8] of 0.0007 ± 0.0001 µM.
